Reference: the NIST ThermoML archive (doi:10.1021/je100687x)

What was measured:
[1] = 101 kPa, Liquid; for electrical conductivity: Crison GLP 31+ conductivimeter
[2] = xn = mol fraction of the nth substance listed; settings: 101 kPa, Liquid; for electrical conductivity: Crison GLP 31+ conductivimeter

CCCCn1cc[n+](C)c1.F[B-](F)(F)F [1-butyl-3-methylimidazolium tetrafluoroborate]
[1]
Settings | electrical conductivity [S/m] | viscosity [mPa·s]
288.15 K | – | 173.5
298.15 K | 0.352 | 99.2
308.15 K | – | 61.3
318.15 K | – | 40.4

CCn1cc[n+](C)c1.F[B-](F)(F)F [1-ethyl-3-methylimidazolium tetrafluoroborate]
[1]
Settings | electrical conductivity [S/m] | viscosity [mPa·s]
288.15 K | – | 55.5
298.15 K | 1.63 | 36.9
308.15 K | – | 26
318.15 K | – | 19.17

CCn1cc[n+](C)c1.F[B-](F)(F)F [1-ethyl-3-methylimidazolium tetrafluoroborate] + CCO
[2]
Settings | electrical conductivity [S/m] | viscosity [mPa·s]
288.15 K, x2 = 0 | – | 55.5
288.15 K, x2 = 0.0946 | – | 34.76
288.15 K, x2 = 0.1928 | – | 25.25
288.15 K, x2 = 0.2757 | – | 20.25
288.15 K, x2 = 0.3116 | – | 18.17
288.15 K, x2 = 0.3913 | – | 13.68
288.15 K, x2 = 0.4553 | – | 12.47
298.15 K, x2 = 0 | 1.63 | 36.9
298.15 K, x2 = 0.028 | 1.718 | –
298.15 K, x2 = 0.057 | 1.843 | –
298.15 K, x2 = 0.0719 | 1.911 | –
298.15 K, x2 = 0.0946 | – | 24.46
298.15 K, x2 = 0.1034 | 2.061 | –
298.15 K, x2 = 0.1624 | 2.287 | –
298.15 K, x2 = 0.1928 | – | 18.33
298.15 K, x2 = 0.242 | 2.647 | –
298.15 K, x2 = 0.2757 | – | 14.92
298.15 K, x2 = 0.3116 | – | 13.47
298.15 K, x2 = 0.3165 | 2.982 | –
298.15 K, x2 = 0.3892 | 3.228 | –
298.15 K, x2 = 0.3913 | – | 10.3
298.15 K, x2 = 0.4085 | 3.278 | –
298.15 K, x2 = 0.4322 | 3.26 | –
298.15 K, x2 = 0.4511 | 3.47 | –
298.15 K, x2 = 0.4553 | – | 8.445
298.15 K, x2 = 0.4613 | 3.561 | –
308.15 K, x2 = 0 | – | 26
308.15 K, x2 = 0.0946 | – | 18.04
308.15 K, x2 = 0.1928 | – | 13.88
308.15 K, x2 = 0.2757 | – | 11.39
308.15 K, x2 = 0.3116 | – | 10.38
308.15 K, x2 = 0.3913 | – | 8.074
308.15 K, x2 = 0.4553 | – | 6.668
318.15 K, x2 = 0 | – | 19.17
318.15 K, x2 = 0.0946 | – | 13.79
318.15 K, x2 = 0.1928 | – | 10.84
318.15 K, x2 = 0.2757 | – | 8.958
318.15 K, x2 = 0.3116 | – | 8.238
318.15 K, x2 = 0.3913 | – | 6.494
318.15 K, x2 = 0.4553 | – | 5.408

CCCCCCn1cc[n+](C)c1.F[B-](F)(F)F [1-hexyl-3-methylimidazolium tetrafluoroborate]
[1]
Settings | electrical conductivity [S/m] | viscosity [mPa·s]
288.15 K | – | 357.5
298.15 K | 0.126 | 190.9
308.15 K | – | 110.3
318.15 K | – | 68.5

CCCCCCCC[n+]1ccn(C)c1.F[B-](F)(F)F [1-methyl-3-octylimidazolium tetrafluoroborate]
[1]
Settings | electrical conductivity [S/m] | viscosity [mPa·s]
288.15 K | – | 686
298.15 K | 0.069 | 337.4
308.15 K | – | 187.7
318.15 K | – | 112.1

CCO [ethanol]
[1]
Settings | electrical conductivity [S/m] | viscosity [mPa·s]
288.15 K | – | 1.296
298.15 K | 3e-05 | 1.091
308.15 K | – | 0.9153
318.15 K | – | 0.7738

CCO [ethanol] + CCCCCCCC[n+]1ccn(C)c1.F[B-](F)(F)F
Settings | electrical conductivity [S/m]
[2], 298.15 K, x1 = 1 | 3e-05

CCO [ethanol] + CCn1cc[n+](C)c1.F[B-](F)(F)F
[2], x1 = 1
Settings | viscosity [mPa·s]
288.15 K | 1.296
298.15 K | 1.091
308.15 K | 0.9153
318.15 K | 0.7738
